Common to all, as to experiment: Fluo-4 calcium mobilization assay (FLIPR), stable inducible cells
Common to all, as to format: cell-based

In test [1] the target is T1, TAS2R46 (Homo sapiens, UniProt P59540).
T1 construct: cDNA in pcDNA5/FRT/TO
T1 sequence (P59540 1-309): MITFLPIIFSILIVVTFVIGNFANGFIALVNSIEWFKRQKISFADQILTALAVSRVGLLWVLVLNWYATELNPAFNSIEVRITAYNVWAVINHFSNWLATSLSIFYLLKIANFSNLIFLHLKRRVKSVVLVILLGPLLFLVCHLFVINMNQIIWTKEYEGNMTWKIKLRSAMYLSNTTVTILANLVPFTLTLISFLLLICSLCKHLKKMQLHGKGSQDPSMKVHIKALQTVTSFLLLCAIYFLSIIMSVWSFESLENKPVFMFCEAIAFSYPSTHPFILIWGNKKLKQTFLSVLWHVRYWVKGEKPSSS
From the text: Fluo-4 calcium mobilization assay (FLIPR), stable inducible cells on TAS2R46

Test [2] deals with T2, TAS2R14 (Homo sapiens, UniProt Q9NYV8).
T2 sequence (Q9NYV8 1-317): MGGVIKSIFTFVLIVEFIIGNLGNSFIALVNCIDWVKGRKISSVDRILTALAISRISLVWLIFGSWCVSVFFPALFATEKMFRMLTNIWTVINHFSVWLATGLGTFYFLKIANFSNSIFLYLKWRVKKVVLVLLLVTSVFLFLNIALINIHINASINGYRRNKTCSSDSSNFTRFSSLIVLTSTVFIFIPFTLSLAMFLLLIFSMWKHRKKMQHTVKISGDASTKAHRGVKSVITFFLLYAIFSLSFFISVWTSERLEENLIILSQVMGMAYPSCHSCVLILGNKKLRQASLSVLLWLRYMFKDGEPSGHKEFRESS
The conditions noted are these: agonist; C1 buffer pH 7.4; non-induced cells subtracted. An excerpt:
Fluo-4 calcium mobilization assay (FLIPR), stable inducible cells on TAS2R14

The target in test [3] is T3, TAS2R43 (Homo sapiens, UniProt P59537).
T3 sequence (P59537 1-309): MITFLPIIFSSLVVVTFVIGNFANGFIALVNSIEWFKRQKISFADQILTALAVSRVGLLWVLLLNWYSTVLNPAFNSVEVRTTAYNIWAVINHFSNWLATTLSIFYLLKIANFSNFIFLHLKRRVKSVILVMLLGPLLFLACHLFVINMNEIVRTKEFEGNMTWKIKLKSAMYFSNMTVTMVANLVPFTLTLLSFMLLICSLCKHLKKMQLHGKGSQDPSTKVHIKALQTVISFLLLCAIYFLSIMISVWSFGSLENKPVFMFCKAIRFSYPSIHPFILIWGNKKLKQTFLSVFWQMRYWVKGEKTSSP
The conditions noted are these: for EC50: read-out: TAS2R43 / EC50-conc. An excerpt: Fluo-4 calcium mobilization assay (FLIPR), stable inducible cells on TAS2R43

[4] abbreviates: agonist, C1 buffer pH 7.4, non-induced cells subtracted.

Where two headings read alike, the source gives them in different places.

Consider `C=C1C(=O)O[C@@H]2[C@H]3C(CO)=CC(=O)C3=C(C)C[C@H](O)[C@@H]12` [lactucin], for which the EC50 came to 8.85 ± 1.17 µM in test [1] (read-out: TAS2R46 / EC50-conc.) and 14.9 ± 2.5 µM in test [3]. Further, in test [2], the “TAS2R14 / Threshold” value amounted to 100 µM.
With lactucopicrin, the “TAS2R14 / Threshold” value in test [2] amounted to 30 µM. Further, in test [3] (setting [4]), the EC50 came to 0.46 ± 0.08 µM.
Consider `CC1=C2C(=O)C=C(CO)[C@@H]2[C@H]2OC(=O)[C@@H](C)[C@@H]2[C@@H](O)C1` [11β,13-dihydrolactucin], for which, in test [1] (setting [4]), the “TAS2R46 / Threshold” value amounted to 30 µM. The “TAS2R14 / Threshold” value in test [2] was 100 µM. Moreover, the TAS2R43 threshold in test [3] (setting [4]) is 10 µM.

Source of the values: PMC9806268, “Overlapping activation pattern of bitter taste receptors affect sensory adaptation and food perception” (Frontiers in Nutrition, 2022).
